Patent US10533207B2, “Bioactivity testing structure for single cell tracking using gelling agents” (QuantaMatrix Inc., priority 2014, dated 2020)
≈ marks a conversion by molar mass, not a printed value.

How the values were obtained:
Assay type in all cases: cell-based, Mycobacterium tuberculosis
XDR-TB clinical strain = test: DST of MTB using the DAC system (MIC from time-lapse images); conditions: for susceptibility determined from the MIC data and the critical concentrations: DAC system, XDR strain; for MIC: Mycobacterium tuberculosis, 120 h
clinical strain KHS = test: Inoculum effect on clinical strains on the DAC system
Method: (§1) Mycobacterium tuberculosis identified by ZN staining and grown from an L-J slope or MGIT tube and was subjected to DST. For the preparation of inoculation from the LJ culture, colonies up to 14 days were extracted from the grown culture. The colonies were shaken with glass beads to crush large lumps. To obtain a high density (˜5×10^9 CFU/ml), the suspension was centrifuged at 3000 g for 10 min and pellets were resuspended in sterile PBS. Subsequently, the suspension was added to liquid agarose, inoculated in a bacteria-agarose mixture within the range of 10^1 to 5×10^8 CFU/ml, and loaded in the main channel After solidification, 7H9 broth containing each antibiotic was applied to the chamber. All bacterial cells were imaged with an inverted optical microscope (IS71, Olympus).
(§2) Clinical strains express various phenotypes, particularly, in drug susceptibility. […] Rifampicin, isoniazid, streptomycin, and ethambutol were used as test drugs. For the 131 strains, the highest concentration was 1.3×10^9.

clinical strain MSH = test: as above
Method: as §1, §2

clinical strain 131 = test: as above
Method: as §1, §2

clinical strain 1088 = test: as above
Method: as §1, §2

clinical strain CYD = test: as above
Method: as §1, §2

clinical strain CMS = test: as above
Method: as §1, §2

standard strain H37Rv = test: Inoculum effect test, DST on the DAC system
MDR-TB clinical strain = test: DST of MTB using the DAC system (MIC from time-lapse images); conditions: for susceptibility determined from the MIC data and the critical concentrations: DAC system, MDR strain; for MIC: Mycobacterium tuberculosis, 120 h
M. tuberculosis H37Rv = test: as above; conditions: for MIC: Mycobacterium tuberculosis, 120 h, images over 5 days; for susceptibility of the strain (in words): from the MIC data
[1] = inoculum 10^4/mL, DAC, unit inferred
[2] = inoculum 10^5/mL, DAC, unit inferred
[3] = inoculum 10^6/mL, MAC2, unit inferred
[4] = inoculum 10^7/mL, MAC2, unit inferred
[5] = inoculum 10^3/mL, DAC, unit inferred

Q: How did the “susceptibility determined from the MIC data and the critical concentrations” value (“susceptibility determined” below) (XDR-TB clinical strain) turn out when `[H]/N=C(/N)N[C@H]1[C@H](O)[C@@H](O)[C@H](O[C@@H]2O[C@@H](C)[C@](O)(C=O)[C@H]2O[C@@H]2O[C@@H](CO)[C@H](O)[C@@H](O)[C@@H]2NC)[C@@H](N/C(N)=N\[H])[C@@H]1O` [SM, streptomycin] was run?
A: R

Q: What about the MIC (XDR-TB clinical strain) of the same molecule?
A: > 4 µg/mL

Q: What about the MIC (DAC) (clinical strain KHS; [1]) of the same molecule?
A: 0.5 µg/mL (≈ 0.86 µM)

Q: And the MIC (DAC) (clinical strain KHS; [2])?
A: 0.25 µg/mL (≈ 0.43 µM)

Q: And the MIC (DAC) (clinical strain KHS; [3])?
A: 0.5 µg/mL (≈ 0.86 µM)

Q: And the MIC (DAC) (clinical strain KHS; [4])?
A: 1 µg/mL (≈ 1.72 µM)

Q: What about the MIC (DAC) (clinical strain MSH; [1]) of the same molecule?
A: 0.25 µg/mL (≈ 0.43 µM)

Q: What about the MIC (DAC) (clinical strain MSH; [2]) of the same molecule?
A: 0.25 µg/mL (≈ 0.43 µM)

Q: And the MIC (DAC) (clinical strain MSH; [3])?
A: 1 µg/mL (≈ 1.72 µM)

Q: What about the MIC (DAC) (clinical strain MSH; [4]) of the same molecule?
A: 0.5 µg/mL (≈ 0.86 µM)

Q: What about the MIC (DAC) (clinical strain 131; [5]) of the same molecule?
A: > 4 µg/mL

Q: What about the MIC (DAC) (clinical strain 131; [1]) of the same molecule?
A: > 4 µg/mL

Q: And the MIC (DAC) (clinical strain 131; [2])?
A: > 4 µg/mL

Q: And the MIC (DAC) (clinical strain 131; [3])?
A: > 4 µg/mL

Q: And the MIC (DAC) (clinical strain 131; [4])?
A: > 4 µg/mL

Q: What about the MIC (DAC) (clinical strain 1088; [5]) of the same molecule?
A: ≥ 4 µg/mL

Q: And the MIC (DAC) (clinical strain 1088; [1])?
A: ≥ 4 µg/mL

Q: And the MIC (DAC) (clinical strain 1088; [2])?
A: ≥ 4 µg/mL

Q: And the MIC (DAC) (clinical strain 1088; [3])?
A: ≥ 4 µg/mL

Q: And the MIC (DAC) (clinical strain 1088; [4])?
A: ≥ 4 µg/mL

Q: What about the MIC (DAC) (clinical strain CYD; [1]) of the same molecule?
A: 0.5 µg/mL (≈ 0.86 µM)

Q: And the MIC (DAC) (clinical strain CYD; [2])?
A: 0.25 µg/mL (≈ 0.43 µM)

Q: What about the MIC (DAC) (clinical strain CYD; [3]) of the same molecule?
A: 0.5 µg/mL (≈ 0.86 µM)

Q: And the MIC (DAC) (clinical strain CYD; [4])?
A: 1 µg/mL (≈ 1.72 µM)

Q: What about the MIC (DAC) (clinical strain CMS; [1]) of the same molecule?
A: 0.5 µg/mL (≈ 0.86 µM)

Q: And the MIC (DAC) (clinical strain CMS; [2])?
A: 0.5 µg/mL (≈ 0.86 µM)

Q: What about the MIC (DAC) (clinical strain CMS; [3]) of the same molecule?
A: 1 µg/mL (≈ 1.72 µM)

Q: What about the MIC (DAC) (clinical strain CMS; [4]) of the same molecule?
A: 1 µg/mL (≈ 1.72 µM)

Q: And the MIC (DAC) (standard strain H37Rv; [5])?
A: 2 µg/mL (≈ 3.44 µM)

Q: What about the MIC (DAC) (standard strain H37Rv; [1]) of the same molecule?
A: 2 µg/mL (≈ 3.44 µM)

Q: What about the MIC (DAC) (standard strain H37Rv; [2]) of the same molecule?
A: 2 µg/mL (≈ 3.44 µM)

Q: What about the MIC (DAC) (standard strain H37Rv; [3]) of the same molecule?
A: 2 µg/mL (≈ 3.44 µM)

Q: What about the MIC (DAC) (standard strain H37Rv; [4]) of the same molecule?
A: > 2 µg/mL

Q: And the “susceptibility determined” value (MDR-TB clinical strain)?
A: R

Q: What about the MIC (MDR-TB clinical strain) of the same molecule?
A: > 4 µg/mL

Q: And the “susceptibility determined” value (M. tuberculosis H37Rv)?
A: R

Q: And the MIC (M. tuberculosis H37Rv)?
A: 2 µg/mL (≈ 3.44 µM)

Q: And the “susceptibility of the strain (in words)” value (M. tuberculosis H37Rv)?
A: sensitive

Q: With `NNC(=O)c1ccncc1` [INH, isoniazid] as the molecule, how does the “susceptibility determined” value (XDR-TB clinical strain) read?
A: R

Q: What about the MIC (XDR-TB clinical strain) of the same molecule?
A: > 0.2 µg/mL

Q: And the MIC (DAC) (clinical strain KHS; [1])?
A: 0.05 µg/mL (≈ 0.365 µM)

Q: What about the MIC (DAC) (clinical strain KHS; [2]) of the same molecule?
A: 0.025 µg/mL (≈ 0.182 µM)

Q: What about the MIC (DAC) (clinical strain KHS; [3]) of the same molecule?
A: 0.025 µg/mL (≈ 0.182 µM)

Q: And the MIC (DAC) (clinical strain KHS; [4])?
A: 0.025 µg/mL (≈ 0.182 µM)

Q: And the MIC (DAC) (clinical strain MSH; [1])?
A: 0.025 µg/mL (≈ 0.182 µM)

Q: And the MIC (DAC) (clinical strain MSH; [2])?
A: 0.025 µg/mL (≈ 0.182 µM)

Q: And the MIC (DAC) (clinical strain MSH; [3])?
A: 0.025 µg/mL (≈ 0.182 µM)

Q: What about the MIC (DAC) (clinical strain MSH; [4]) of the same molecule?
A: 0.025 µg/mL (≈ 0.182 µM)

Q: What about the MIC (DAC) (clinical strain 131; [5]) of the same molecule?
A: 0.2 µg/mL (≈ 1.46 µM)

Q: What about the MIC (DAC) (clinical strain 131; [1]) of the same molecule?
A: > 0.2 µg/mL

Q: What about the MIC (DAC) (clinical strain 131; [2]) of the same molecule?
A: > 0.2 µg/mL

Q: What about the MIC (DAC) (clinical strain 131; [3]) of the same molecule?
A: > 0.2 µg/mL

Q: And the MIC (DAC) (clinical strain 131; [4])?
A: > 0.2 µg/mL

Q: And the MIC (DAC) (clinical strain 1088; [5])?
A: ≥ 0.2 µg/mL

Q: And the MIC (DAC) (clinical strain 1088; [1])?
A: 0.2 µg/mL (≈ 1.46 µM)

Q: What about the MIC (DAC) (clinical strain 1088; [2]) of the same molecule?
A: 0.2 µg/mL (≈ 1.46 µM)

Q: What about the MIC (DAC) (clinical strain 1088; [3]) of the same molecule?
A: ≥ 0.2 µg/mL

Q: And the MIC (DAC) (clinical strain 1088; [4])?
A: ≥ 0.2 µg/mL

Q: And the MIC (DAC) (clinical strain CYD; [1])?
A: 0.05 µg/mL (≈ 0.365 µM)

Q: And the MIC (DAC) (clinical strain CYD; [2])?
A: 0.025 µg/mL (≈ 0.182 µM)

Q: And the MIC (DAC) (clinical strain CYD; [3])?
A: 0.025 µg/mL (≈ 0.182 µM)

Q: And the MIC (DAC) (clinical strain CYD; [4])?
A: 0.025 µg/mL (≈ 0.182 µM)

Q: What about the MIC (DAC) (clinical strain CMS; [1]) of the same molecule?
A: 0.05 µg/mL (≈ 0.365 µM)

Q: And the MIC (DAC) (clinical strain CMS; [2])?
A: 0.025 µg/mL (≈ 0.182 µM)

Q: And the MIC (DAC) (clinical strain CMS; [3])?
A: 0.025 µg/mL (≈ 0.182 µM)

Q: And the MIC (DAC) (clinical strain CMS; [4])?
A: 0.05 µg/mL (≈ 0.365 µM)

Q: And the MIC (DAC) (standard strain H37Rv; [5])?
A: 0.05 µg/mL (≈ 0.365 µM)

Q: And the MIC (DAC) (standard strain H37Rv; [1])?
A: 0.05 µg/mL (≈ 0.365 µM)

Q: What about the MIC (DAC) (standard strain H37Rv; [2]) of the same molecule?
A: 0.05 µg/mL (≈ 0.365 µM)

Q: What about the MIC (DAC) (standard strain H37Rv; [3]) of the same molecule?
A: 0.05 µg/mL (≈ 0.365 µM)

Q: And the MIC (DAC) (standard strain H37Rv; [4])?
A: 0.05 µg/mL (≈ 0.365 µM)

Q: What about the “susceptibility determined” value (MDR-TB clinical strain) of the same molecule?
A: R

Q: And the MIC (MDR-TB clinical strain)?
A: > 0.2 µg/mL

Q: What about the “susceptibility determined” value (M. tuberculosis H37Rv) of the same molecule?
A: S

Q: And the MIC (M. tuberculosis H37Rv)?
A: 0.05 µg/mL (≈ 0.365 µM)

Q: What about the “susceptibility of the strain (in words)” value (M. tuberculosis H37Rv) of the same molecule?
A: sensitive
